Bridge positions count the residues as written; N and C are the ends. Square brackets hold non-standard residues; d marks the D form. Peptide text beside a SMILES is read from it. * marks the point of attachment. ξ: configuration not given here. Phe(4-COOH) = N[C@@H](Cc1ccc(C(=O)O)cc1)C(=O)O; Bip = N[C@@H](Cc1ccc(-c2ccccc2)cc1)C(=O)O; Nle(6-COOH) = N[C@@H](CCCCC(=O)O)C(=O)O; Phe(3-Me) = Cc1cccc(C[C@H](N)C(=O)O)c1; hArg = N=C(N)NCCCC[C@H](N)C(=O)O; Cha = N[C@@H](CC1CCCCC1)C(=O)O; Cit = NC(=O)NCCC[C@H](N)C(=O)O; Thr(3ξ) = CC(O)[C@H](N)C(=O)O; Carboxymethyl = O=C(O)C*; Orn = NCCC[C@H](N)C(=O)O; Aun = NCCCCCCCCCCC(=O)O; Dab = NCC[C@H](N)C(=O)O; AEEA = NCCOCCOCC(=O)O

T1 sequence (Q15116 25-288): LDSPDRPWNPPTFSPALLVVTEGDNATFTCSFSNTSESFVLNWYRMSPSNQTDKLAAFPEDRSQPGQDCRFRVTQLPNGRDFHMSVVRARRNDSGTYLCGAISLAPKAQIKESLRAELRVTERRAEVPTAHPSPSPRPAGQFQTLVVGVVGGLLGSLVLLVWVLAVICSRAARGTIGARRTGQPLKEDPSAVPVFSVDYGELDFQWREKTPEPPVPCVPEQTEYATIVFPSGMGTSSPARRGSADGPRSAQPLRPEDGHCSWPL

This assay concerns the target T1, PD-1/PD-L1 interaction (PE-labeled human PD-L1-Ig binding to Jurkat cell line over-expressing human PD-1) (Homo sapiens, UniProt Q15116).
T1 construct: expressed in transfected cells; host or cells: Jurkat
As to the kind of experiment: Jurkat-PD-1 Cell Binding High-Content Screening Assay (CBA). To be noted: Jurkat cell line over-expressing human PD-1; PE-labeled PD-L1-Ig 20 nM final; read-out: Jurkat hPD1-PDL1 IC50. In kind it is cell-based. The gist of the method:
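Jurkat-hPD-1 cells, DMEM/10% FCS; cpd 2 h 37° C; PE-PD-L1-Ig 20 nM final, 1 h; 4% PFA fix + Hoechst 33342, 3× dPBS wash; high-content imaging read-out.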
For orientation: IC50 means the midpoint of a concentration-inhibition curve. With `Cc1cccc(C[C@@H]2NC(=O)[C@H](CC(=O)O)NC(=O)[C@H](Cc3ccc(OCC(=O)O)cc3)NC(=O)[C@H](CCCNC(=N)N)NC(=O)CSC[C@@H](C(=O)N[C@@H](CCN)C(=O)NCCCCCCCCCCC(=O)O)NC(=O)[C@H](C(C)O)NC(=O)[C@H](C(C)C)NC(=O)[C@H](CC3CCCCC3)NC(=O)[C@H](CCN)NC(=O)[C@@H](CC(C)C)NC(=O)[C@H](CCCN)NC(=O)[C@H](Cc3ccc(OCC(=O)O)cc3)NC(=O)[C@H](Cc3ccc(-c4ccccc4)cc3)NC(=O)[C@H](CC(C)C)NC2=O)c1` (stereo partly drawn) [Compound 3387] ({CH2CO}-RY(Carboxymethyl)D[Phe(3-Me)]L[Bip]Y(Carboxymethyl)[Orn][dL][Dab][Cha]V[Thr(3ξ)]C[Dab][Aun]-OH; thioether N-14), the IC50 was determined as 20.5 nM. As to `Cc1cccc(C[C@@H]2NC(=O)[C@H](CC(=O)O)NC(=O)[C@H](Cc3ccc(OCC(=O)O)cc3)NC(=O)[C@H](CCCNC(=N)N)NC(=O)CSC[C@@H](C(=O)N[C@@H](CCN)C(=O)NCCCCCCCCCCC(=O)O)NC(=O)[C@H](CCCNC(N)=O)NC(=O)[C@H](C(C)C)NC(=O)[C@H](CC3CCCCC3)NC(=O)[C@H](CCN)NC(=O)[C@@H](CC(C)C)NC(=O)[C@H](CCCN)NC(=O)[C@H](CCCCC(=O)O)NC(=O)[C@H](Cc3ccc(-c4ccccc4)cc3)NC(=O)[C@H](C(C)C)NC2=O)c1` [Compound 3390] ({CH2CO}-RY(Carboxymethyl)D[Phe(3-Me)]V[Bip][Nle(6-COOH)][Orn][dL][Dab][Cha]V[Cit]C[Dab][Aun]-OH; thioether N-14), the IC50 is 9 nM. Consider `CC(=O)NCCCC[C@@H]1NC(=O)[C@H](C(C)C)NC(=O)[C@H](CC2CCCCC2)NC(=O)[C@H](CCN)NC(=O)[C@@H](CC(C)C)NC(=O)[C@H](CCCN)NC(=O)[C@H](Cc2ccc(O)cc2)NC(=O)[C@H](Cc2ccc(-c3ccccc3)cc2)NC(=O)[C@H](C(C)C)NC(=O)[C@H](Cc2c[nH]c3ccccc23)NC(=O)[C@H](CC(=O)O)NC(=O)[C@H](Cc2ccc(OCC(=O)O)cc2)NC(=O)[C@H](CCCNC(=N)N)NC(=O)CSC[C@@H](C(=O)N[C@@H](CCN)C(=O)NCCCCCCCCCCC(=O)O)NC1=O` [Compound 3391] ({CH2CO}-RY(Carboxymethyl)DWV[Bip]Y[Orn][dL][Dab][Cha]VK(Ac)C[Dab][Aun]-OH; thioether N-14), for which the IC50 is 8.8 nM. With `CC(C)C[C@H]1NC(=O)[C@H](CCCN)NC(=O)[C@H](Cc2ccc(O)cc2)NC(=O)[C@H](Cc2ccc(-c3ccccc3)cc2)NC(=O)[C@H](C(C)C)NC(=O)[C@H](Cc2c[nH]c3ccccc23)NC(=O)[C@H](CC(=O)O)NC(=O)[C@H](Cc2ccc(C(=O)O)cc2)NC(=O)[C@H](CC(N)=O)NC(=O)CSC[C@@H](C(=O)N[C@@H](CCN)C(=O)NCCCCCCCCCCC(=O)O)NC(=O)[C@H](CCC(=O)O)NC(=O)[C@H](C(C)C)NC(=O)[C@H](CC2CCCCC2)NC(=O)[C@H](CCN)NC1=O` [Compound 3392] ({CH2CO}-N[Phe(4-COOH)]DWV[Bip]Y[Orn][dL][Dab][Cha]VEC[Dab][Aun]-OH; thioether N-14), the IC50 was 13.3 nM. Turning to `CC(C)C[C@H]1NC(=O)[C@H](CCCN)NC(=O)[C@H](Cc2ccc(O)cc2)NC(=O)[C@H](Cc2ccc(-c3ccccc3)cc2)NC(=O)[C@H](C(C)C)NC(=O)[C@H](Cc2c[nH]c3ccccc23)NC(=O)[C@H](CC(=O)O)NC(=O)[C@H](Cc2ccc(OCC(=O)O)cc2)NC(=O)[C@H](CCCNC(=N)N)NC(=O)CSC[C@@H](C(=O)NCCOCCOCC(=O)NCCCCCCCCCCC(=O)O)NC(=O)[C@H](C(C)O)NC(=O)[C@H](C(C)C)NC(=O)[C@H](CC2CCCCC2)NC(=O)[C@H](CCN)NC1=O` (stereo partly drawn) [Compound 3393] ({CH2CO}-RY(Carboxymethyl)DWV[Bip]Y[Orn][dL][Dab][Cha]V[Thr(3ξ)]C[AEEA][Aun]-OH; thioether N-14), the IC50 came to 12.8 nM.

For the compound `Cc1cccc(C[C@@H]2NC(=O)[C@H](CC(=O)O)NC(=O)[C@H](Cc3ccc(OCC(=O)O)cc3)NC(=O)[C@H](C(C)O)NC(=O)CSC[C@@H](C(=O)NCCOCCOCC(=O)NCCCCCCCCCCC(=O)O)NC(=O)[C@H](CCC(N)=O)NC(=O)[C@H](C(C)C)NC(=O)[C@H](CC3CCCCC3)NC(=O)[C@H](CCN)NC(=O)[C@@H](CC(C)C)NC(=O)[C@H](CCN)NC(=O)[C@H](Cc3ccc(O)cc3)NC(=O)[C@H](Cc3ccc(-c4ccccc4)cc3)NC(=O)[C@H](C(C)C)NC2=O)c1` (stereo partly drawn) [Compound 3394] ({CH2CO}-[Thr(3ξ)]Y(Carboxymethyl)D[Phe(3-Me)]V[Bip]Y[Dab][dL][Dab][Cha]VQC[AEEA][Aun]-OH; thioether N-14), the IC50 came out at 6.9 nM.

Take `CC(C)C[C@H]1NC(=O)[C@H](CCCN)NC(=O)[C@H](Cc2ccc(O)cc2)NC(=O)[C@H](Cc2ccc(-c3ccccc3)cc2)NC(=O)[C@H](C(C)C)NC(=O)[C@H](Cc2c[nH]c3ccccc23)NC(=O)[C@H](CC(=O)O)NC(=O)[C@H](Cc2ccc(OCC(=O)O)cc2)NC(=O)[C@H](CCCCNC(=N)N)NC(=O)CSC[C@@H](C(=O)N[C@@H](CCN)C(=O)NCCCCCCCCCCC(=O)O)NC(=O)[C@H](CCC(=O)O)NC(=O)[C@H](C(C)C)NC(=O)[C@H](CC2CCCCC2)NC(=O)[C@H](CCN)NC1=O` [Compound 3395] ({CH2CO}-[hArg]Y(Carboxymethyl)DWV[Bip]Y[Orn][dL][Dab][Cha]VEC[Dab][Aun]-OH; thioether N-14): the IC50 was 10 nM. Under `Cc1cccc(C[C@@H]2NC(=O)[C@H](CC(=O)O)NC(=O)[C@H](Cc3ccc(OCC(=O)O)cc3)NC(=O)[C@H](CCCCNC(=N)N)NC(=O)CSC[C@@H](C(=O)NCCOCCOCC(=O)NCCCCCCCCCCC(=O)O)NC(=O)[C@H](CCC(N)=O)NC(=O)[C@H](C(C)C)NC(=O)[C@H](CC3CCCCC3)NC(=O)[C@H](CCN)NC(=O)[C@@H](CC(C)C)NC(=O)[C@H](CCN)NC(=O)[C@H](Cc3ccc(O)cc3)NC(=O)[C@H](Cc3ccc(-c4ccccc4)cc3)NC(=O)[C@H](C(C)C)NC2=O)c1` [Compound 3396] ({CH2CO}-[hArg]Y(Carboxymethyl)D[Phe(3-Me)]V[Bip]Y[Dab][dL][Dab][Cha]VQC[AEEA][Aun]-OH; thioether N-14) stands 9.1 nM. For the compound `Cc1cccc(C[C@@H]2NC(=O)[C@H](CC(=O)O)NC(=O)[C@H](Cc3ccc(OCC(=O)O)cc3)NC(=O)[C@H](C(C)O)NC(=O)CSC[C@@H](C(=O)NCCOCCOCC(=O)NCCCCCCCCCCC(=O)O)NC(=O)[C@H](CCCNC(N)=O)NC(=O)[C@H](C(C)C)NC(=O)[C@H](CC3CCCCC3)NC(=O)[C@H](CCN)NC(=O)[C@@H](CC(C)C)NC(=O)[C@H](CCN)NC(=O)[C@H](Cc3ccc(O)cc3)NC(=O)[C@H](Cc3ccc(-c4ccccc4)cc3)NC(=O)[C@H](C(C)C)NC2=O)c1` (stereo partly drawn) [Compound 3397] ({CH2CO}-[Thr(3ξ)]Y(Carboxymethyl)D[Phe(3-Me)]V[Bip]Y[Dab][dL][Dab][Cha]V[Cit]C[AEEA][Aun]-OH; thioether N-14), the IC50 came out at 7.4 nM.

Take `Cc1cccc(C[C@@H]2NC(=O)[C@H](CC(=O)O)NC(=O)[C@H](Cc3ccc(OCC(=O)O)cc3)NC(=O)[C@H](CCCNC(=N)N)NC(=O)CSC[C@@H](C(=O)NCCOCCOCC(=O)NCCCCCCCCCCC(=O)O)NC(=O)[C@H](CCC(N)=O)NC(=O)[C@H](C(C)C)NC(=O)[C@H](CC3CCCCC3)NC(=O)[C@H](CCN)NC(=O)[C@@H](CC(C)C)NC(=O)[C@H](CCN)NC(=O)[C@H](Cc3ccc(O)cc3)NC(=O)[C@H](Cc3ccc(-c4ccccc4)cc3)NC(=O)[C@H](C(C)C)NC2=O)c1` [Compound 3398] ({CH2CO}-RY(Carboxymethyl)D[Phe(3-Me)]V[Bip]Y[Dab][dL][Dab][Cha]VQC[AEEA][Aun]-OH; thioether N-14): the IC50 stood at 5.8 nM.
